According to patent US11987647B2, “Cyclic cell-penetrating peptides with one or more hydrophobic residues” (Ohio State Innovation Foundation, priority 2018, dated 2024):
[ ]: non-standard residue; d: D form. The star is where a group is joined. Decanoyl = CCCCCCCCCC(=O)*; Orn = NCCC[C@H](N)C(=O)O

How the values were obtained:
Assay type in all cases: cell-based
HeLa cells [1] = assay: Cytosolic entry efficiency of NF-labelled peptides by flow cytometry; settings: for sensitivity to serum concentration: 10% vs 1% FBS, compared with CPP9 or CPP12; for Cellular Entry Efficiency In 10% FBS: 2 h, relative to CPP12 (100%); for CPP activity compared with CPP1-4 (in words): variant of CPP1-4
Procedure: All of the peptides were labeled with naphthofluorescein (NF) at the Gln side chain through a long, flexible linker, miniPEG-Lys. HeLa cells were treated with 5 μM peptide for 2 h in the presence of 10% FBS and the cytosolic entry of the peptides was quantitated by flow cytometry analysis.
To determine cellular uptake efficiency of the CPPs disclosed herein, HeLa cells were cultured in 12-well plates (1.5×10^5 cells per well) overnight. The cells were incubated for 2 h with […] naphthofluorescein (NF)-labelled peptide in cellular media. At the end of incubation, the cells were washed with DPBS twice, detached from the plate with 0.25% trypsin, diluted into clear DMEM, pelleted at 250 g for 5 min, washed twice with DPBS, resuspended in DPBS, and analyzed on a BD FACS LSR II flow cytometer. For NF-labelled peptides, a 633-nm laser was used for excitation and the fluorescence emission was analyzed in the APC channel. Absolute cellular uptake efficiency was determined by comparing the concentration (via fluorescence intensity) of the CPP in the cytosol to the concentration in the extracellular medium. Relative cellular uptake efficiency was determined by comparing the cytosolic concentration of the CPP to that cytosolic concentration of the control CPP cyclo(FΦRRRRQ).

HeLa cells [2] = assay: Cellular entry by live-cell confocal imaging of FITC-labelled peptides; settings: 5 μM FITC-labelled peptide, 2 h
Procedure: CPP1-15 and CPP1-20 were labeled with FITC via a miniPEG-Lys linker. HeLa cells were treated with 5 μM peptide for 2 h, washed, and imaged by live-cell confocal imaging. […] Additional experiments are ongoing to further examine their mechanism of cell entry.

HeLa cells [3] = assay: Cytosolic entry efficiency of NF-labelled peptides by flow cytometry; settings: for Cellular Entry Efficiency In 1% FBS: relative to CPP12 (100%); for cytosolic entry efficiency: reduced serum concentration (1% FBS), CPP12 most active
HeLa cells [4] = assay: Cytotoxicity by the MTT assay; settings: no label, up to 40 μM concentration
Description: CPP1-15 (no label) was used as a representative and tested against HeLa cells for potential cytotoxicity by the MTT assay.

[5] = Table 4, 5 μM NF-labelled peptide, 10% FBS
[6] = Table 7, 5 μM NF-labelled peptide, 10% FBS

Substance	improvement in activity (HeLa cells [1]; 10% FBS, relative to CPP1-4) [fold]	sensitivity to serum concentration (HeLa cells [1])	Cellular Entry Efficiency In 10% FBS (HeLa cells [1]; [5]) [%]	Cellular Entry Efficiency In 10% FBS (HeLa cells [1]; [6]) [%]	fold more active than CPP9 and CPP12 (HeLa cells [1]; in the presence of 10% FBS) [fold]	cellular entry (confocal imaging) (HeLa cells [2])	Cellular Entry Efficiency In 1% FBS (HeLa cells [3]; Table 4, NF-labelled peptide) [%]	Cellular Entry Efficiency In 1% FBS (HeLa cells [3]; Table 7, NF-labelled peptide) [%]	cytosolic entry efficiency (HeLa cells [3]) [%]	cytotoxicity (HeLa cells [4])	CPP activity compared with CPP1-4 (in words) (HeLa cells [1])
cyclo(Asp^DecyRRRRQ) (cyclo(DRRRRQ); not fully specified (residue 1); printed as cyclo(Asp^DecyRRRRQ)) [CPP1-20]	~5	lower sensitivity to serum concentration	281 ± 59	281 ± 59	−3	entered HeLa cells efficiently	94 ± 41	94 ± 41	94		
cyclo(Lys^DecaRRRRQ) (cyclo(K(Decanoyl)RRRRQ); SMILES CCCCCCCCCC(=O)NCCCC[C@@H]1NC(=O)[C@H](CCC(N)=O)NC(=O)[C@H](CCCNC(=N)N)NC(=O)[C@H](CCCNC(=N)N)NC(=O)[C@H](CCCNC(=N)N)NC(=O)[C@H](CCCNC(=N)N)NC1=O) [CPP1-15]		lower sensitivity to serum concentration	76 ± 21	76 ± 21		entered HeLa cells efficiently	44 ± 11	44 ± 11	43	did not show significant cytotoxicity	slightly increased the CPP activity
cyclo(Orn^DecaRRRRQ) (cyclo([Orn](Decanoyl)RRRRQ); SMILES CCCCCCCCCC(=O)NCCC[C@@H]1NC(=O)[C@H](CCC(N)=O)NC(=O)[C@H](CCCNC(=N)N)NC(=O)[C@H](CCCNC(=N)N)NC(=O)[C@H](CCCNC(=N)N)NC(=O)[C@H](CCCNC(=N)N)NC1=O) [CPP1-17]		lower sensitivity to serum concentration	115 ± 32	115 ± 32			58 ± 22	58 ± 22	58		slightly increased the CPP activity
cyclo(fΦRrRrQ) [CPP9, reference compound]			94 ± 7	94 ± 7			32 ± 6	32 ± 6	32		
